The values that follow come from article PMC9709915, “A Single Point Mutation Blocks the Entrance of Ligands to the Cannabinoid CB2 Receptor via the Lipid Bilayer” (Journal of Chemical Information and Modeling, 2022).

Experiment in all cases: inhibition of forskolin-stimulated cAMP, Lance-Ultra cAMP kit, HTRF
What all share (assay type): cell-based
On the technique in general: In TR-FRET formats the signal depends on donor and acceptor labels being close together.

The target of test [1] is T1, CB2R (hCB2R) (Homo sapiens, UniProt P34972).
T1 construct: gene CNR2; full-length hCB2R cDNA in pcDNA3.1, transiently expressed in HEK-293T cells; no tag mentioned
An excerpt: (§1) inhibition of forskolin-stimulated cAMP, Lance-Ultra cAMP kit, HTRF on CB2R (hCB2R)

Test [2] concerns the target T2, CB2R (hCB2R) (Homo sapiens, UniProt P34972, A282F).
T2 construct: gene CNR2; full-length hCB2R cDNA in pcDNA3.1, transiently expressed in HEK-293T cells; no tag mentioned
From the text: as §1

Test [3] deals with T3, CB2R (hCB2R) (Homo sapiens, UniProt P34972, A282M).
T3 construct: gene CNR2; full-length hCB2R cDNA in pcDNA3.1, transiently expressed in HEK-293T cells; no tag mentioned
From the text: as §1

Test [4] deals with T4, CB2R (hCB2R) (Homo sapiens, UniProt P34972, V36F).
T4 construct: gene CNR2; full-length hCB2R cDNA in pcDNA3.1, transiently expressed in HEK-293T cells; no tag mentioned
From the text: as §1

In test [5] the target is T5, CB2R (hCB2R) (Homo sapiens, UniProt P34972, V36M).
T5 construct: gene CNR2; full-length hCB2R cDNA in pcDNA3.1, transiently expressed in HEK-293T cells; no tag mentioned
From the text: as §1

T1 sequence (P34972 whole entry): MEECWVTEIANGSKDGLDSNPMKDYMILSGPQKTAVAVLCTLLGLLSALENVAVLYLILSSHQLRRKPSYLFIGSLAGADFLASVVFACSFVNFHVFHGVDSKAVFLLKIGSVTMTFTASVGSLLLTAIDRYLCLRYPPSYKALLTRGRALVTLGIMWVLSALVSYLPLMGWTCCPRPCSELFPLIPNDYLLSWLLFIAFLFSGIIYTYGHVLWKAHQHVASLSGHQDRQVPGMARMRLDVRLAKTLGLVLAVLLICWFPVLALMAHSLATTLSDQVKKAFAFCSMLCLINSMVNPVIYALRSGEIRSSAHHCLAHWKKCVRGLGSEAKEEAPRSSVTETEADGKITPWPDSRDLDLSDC
T2 sequence (P34972 whole entry A282F): as the sequence (P34972 whole entry) above, with A282F counted along it
T3 sequence (P34972 whole entry A282M): as the sequence (P34972 whole entry) above, with A282M counted along it
T5 sequence (P34972 whole entry V36M): as the sequence (P34972 whole entry) above, with V36M counted along it
T4 sequence (P34972 whole entry V36F): as the sequence (P34972 whole entry) above, with V36F counted along it

Regarding `CCCC(C)(C)c1ccc2c(c1)OC(C)(C)[C@@H]1CC=C(C)C[C@@H]21` [JWH-133], the EC50 on CB2R (hCB2R) [1] was 0.0316 µM; on CB2R (hCB2R) [2] it was 0.316 µM; at CB2R (hCB2R) [3], 0.0158 µM; at CB2R (hCB2R) [4] it was 0.158 µM; at CB2R (hCB2R) [5], 0.0126 µM.

Usually EC50 stands for the concentration that produces a half-maximal response.
